As a reminder, the EC50 is the concentration that produces a half-maximal response. High values mean lower potency in that assay, low ones higher potency in that assay.

This experiment has as its system NL-RLuc virus. Briefly: Inhibition of HIV replication (NL-RLuc virus, luciferase readout in MT-2 cells). Type of experiment: cell-based. The conditions noted are these: MT-2 cells infected with NL-RLuc virus, 5 days of incubation, 10% FBS, at least 2 experiments. An outline of the steps: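 MT-2 cells infected with NL4-3-derived virus carrying Renilla luciferase in place of part of nef, grown 5 days with serial compound dilutions in RPMI 1640/10% FBS. Virus growth read as luciferase expression. EC50 from median effect equation, at least 2 experiments.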

[1] abbreviates: Human immunodeficiency virus 1, MT2, 120 h.

In turn, `Cc1ncc(-c2ccncc2)c(N2CCC(C)(C)CC2)c1[C@H](OC(C)(C)C)C(=O)O` [Example 141, (2S)-2-(tert-Butoxy)-2-[4-(4,4-dimethylpiperidin-1-yl)-6-methyl-[3, 4′-bipyridine]-5-yl]acetic acid] displayed an EC50 under setting [1] of 8 nM.

For `Cc1ncc(-c2ccc(NCCc3ccc(F)cc3)nc2)c(N2CCC(C)(C)CC2)c1[C@H](OC(C)(C)C)C(=O)O` [Example 110, (S)-2-(tert-Butoxy)-2-(4-(4,4-dimethylpiperidin-1-yl)-6′-((4-fluorophenethyl)amino)-6-methyl-[3, 3′-bipyridin]-5-yl)acetic acid], the midpoint of the response under setting [1], the EC50, lay at 2 nM.

Regarding `Cc1ncc(-c2cncc(CCC(C)C)c2)c(N2CCC(C)(C)CC2)c1[C@H](OC(C)(C)C)C(=O)O` [Example 419, (S)-2-(tert-Butoxy)-2-(4-(4,4-dimethylpiperidin-1-yl)-5′-isopentyl-6-methyl-[3, 3′-bipyridin]-5-yl)acetic acid], the EC50 under setting [1] stood at 31 nM.

`CCC(C)COc1ncc(-c2cnc(C)c([C@H](OC(C)(C)C)C(=O)O)c2N2CCC(C)(C)CC2)cc1F` (stereo partly drawn) [Example 386, (2S)-2-(tert-butoxy)-2-[4-(4,4-dimethylpiperidin-1-yl)-5′-fluoro-6-methyl-6′-(2-methylbutoxy)-[3,3′-bipyridine]-5-yl]acetic acid] returned an EC50 under setting [1] of 6 nM.

Regarding `Cc1ncc(-c2ccc(OCCc3ccc(F)cc3)cn2)c(N2CCC(C)(C)CC2)c1[C@H](OC(C)(C)C)C(=O)O` [Example 126, (2S)-2-(tert-Butoxy)-2-[4′-(4,4-dimethylpiperidin-1-yl)-5-[2-(4-fluorophenyl)ethoxy]-6′-methyl-[2, 3′-bipyridine]-5′-yl]acetic acid], the EC50 under setting [1] was found to be 0.4 nM.

For `Cc1ncc(-c2ccc(OCCc3ccc(F)cc3F)cn2)c(N2CCC(C)(C)CC2)c1[C@H](OC(C)(C)C)C(=O)O` [Example 306, (2S)-2-(tert-butoxy)-2-{5-[2-(2,4-difluorophenyl)ethoxy]-4′-(4,4-dimethylpiperidin-1-yl)-6′-methyl-[2,3′-bipyridine]-5′-yl}acetic acid], the EC50 under setting [1] came out at 0.6 nM.

`Cc1nc(N)c(-c2cc(F)c(OCCc3ccc(F)cc3)cc2F)c(N2CCC(C)(C)CC2)c1[C@H](OC(C)(C)C)C(=O)O` [Example 68, (2S)-2-(6-Amino-5-(2,5-difluoro-4-(4-fluorophenethoxy)phenyl)-4-(4,4-dimethylpiperidin-1-yl)-2-methylpyridin-3-yl)-2-(tert-butoxy)acetic acid] displayed an EC50 under setting [1] of 2 nM.

`Cc1ncc(-c2ccc(OCCc3ccccc3)cn2)c(N2CCC(C)(C)CC2)c1[C@H](OC(C)(C)C)C(=O)O` [Example 285, (S)-2-(tert-Butoxy)-2-(4′-(4,4-dimethylpiperidin-1-yl)-6′-methyl-5-phenethoxy-[2, 3′-bipyridin]-5′-yl)acetic acid] gave an EC50 under setting [1] of 0.6 nM.

With `Cc1ncc(-c2ccc(OC(C)C(C)C)nc2)c(N2CCC(C)(C)CC2)c1[C@H](OC(C)(C)C)C(=O)O` (stereo partly drawn) [Example 438, (2S)-2-tert-Butoxy-2-(4-(4,4-dimethylpiperidin-1-yl)-6-methyl-6′-(3-methylbutan-2-yloxy)-3, 3′-bipyridin-5-yl)acetic acid], the midpoint of the response under setting [1], the EC50, lay at 14 nM.

Consider `Cc1nc(-c2ccnn2C)c(-c2ccc(OCCc3ccc(F)cc3)cc2)c(N2CCC(C)(C)CC2)c1[C@H](OC(C)(C)C)C(=O)O` [Example 50, (S)-2-(tert-Butoxy)-2-(4-(4,4-dimethylpiperidin-1-yl)-5-(4-(4-fluorophenethoxy)phenyl)-2-methyl-6-(1-methyl-1H-pyrazol-5-yl)pyridin-3-yl)acetic acid], for which the EC50 under setting [1] came to 2 nM.

Turning to `Cc1nc(Nc2ccccc2)c(-c2ccc(OCCc3ccc(F)cc3)cc2)c(N2CCC(C)(C)CC2)c1[C@H](OC(C)(C)C)C(=O)O` [Example 67, (S)-2-(tert-Butoxy)-2-(4-(4,4-dimethylpiperidin-1-yl)-5-(4-(4-fluorophenethoxy)phenyl)-2-methyl-6-(phenylamino)pyridin-3-yl)acetic acid], the EC50 under setting [1] is 27 nM.

As for `Cc1ncc(-c2ccccn2)c(N2CCC(C)(C)CC2)c1[C@H](OC(C)(C)C)C(=O)O` [Example 186, (2S)-2-(tert-Butoxy)-2-[4′-(4,4-dimethylpiperidin-1-yl)-6′-methyl-[2, 3′-bipyridine]-5′-yl]acetic acid], the concentration giving a half-maximal response (EC50) under setting [1] was 37 nM.

On to `Cc1ncc(-c2ccc(OCCc3ccc(F)c(Cl)c3)cn2)c(N2CCC(C)(C)CC2)c1[C@H](OC(C)(C)C)C(=O)O` [Example 307, (2S)-2-(tert-butoxy)-2-{5-[2-(3-chloro-4-fluorophenyl)ethoxy]-4′-(4,4-dimethylpiperidin-1-yl)-6′-methyl-[2,3′-bipyridine]-5′-yl}acetic acid], for which the response under setting [1] was half-maximal at 1 nM (EC50).

`Cc1ncc(-c2cnc(O[C@@H](C)c3ccccc3)c(F)c2)c(N2CCC(C)(C)CC2)c1[C@H](OC(C)(C)C)C(=O)O` [Example 400, (2S)-2-(tert-butoxy)-2-[4-(4,4-dimethylpiperidin-1-yl)-5′-fluoro-6-methyl-6′-[(1S)-1-phenylethoxy]-[3,3′-bipyridine]-5-yl]acetic acid] gave a 50% effective concentration (EC50) under setting [1] of 6 nM.

The compound `CC(C)COc1ccc(-c2cnc(CF)c([C@H](OC(C)(C)C)C(=O)O)c2N2CCC(C)(C)CC2)nc1` [Example 278, (S)-2-(tert-Butoxy)-2-(4′-(4,4-dimethylpiperidin-1-yl)-6′-(fluoromethyl)-5-isobutoxy-[2, 3′-bipyridin]-5′-yl)acetic acid] gave an EC50 under setting [1] of 4 nM.

Consider `Cc1nc(N)c(-c2cc(F)c(OCCc3ccc(F)cc3)c(F)c2)c(N2CCC(C)(C)CC2)c1[C@H](OC(C)(C)C)C(=O)O` [Example 60, (S)-2-(6-Amino-5-(3,5-difluoro-4-(4-fluorophenethoxy)phenyl)-4-(4,4-dimethylpiperidin-1-yl)-2-methylpyridin-3-yl)-2-(tert-butoxy)acetic acid], for which the EC50 under setting [1] stood at 25 nM.

Turning to `Cc1ncc(-c2ccc(C(F)(F)CC(C)C)nc2)c(N2CCC(C)(C)CC2)c1[C@H](OC(C)(C)C)C(=O)O` [Example 430, (S)-2-tert-Butoxy-2-(6′-(1,1-difluoro-3-methylbutyl)-4-(4,4-dimethylpiperidin-1-yl)-6-methyl-3, 3′-bipyridin-5-yl)acetic acid], the concentration giving a half-maximal response (EC50) under setting [1] was 16 nM.

Under setting [1], `CC1(C)CCN(c2c(-c3ccc(F)c(F)c3)c(CN3CCC4(CCC4)CC3)nc(Cl)c2[C@H](OC(C)(C)C)C(=O)O)CC1` [Example 207, (S)-2-(6-((7-Azaspiro[3.5]nonan-7-yl)methyl)-2-chloro-5-(3,4-difluorophenyl)-4-(4,4-dimethylpiperidin-1-yl)pyridin-3-yl)-2-(tert-butoxy)acetic acid] yielded an EC50 of 36 nM.

For the compound `Cc1nc(-n2ccnc2C)c(-c2ccc(OCCc3ccc(F)cc3)cc2)c(N2CCC(C)(C)CC2)c1[C@H](OC(C)(C)C)C(=O)O` [Example 54, (S)-2-(tert-Butoxy)-2-(4-(4,4-dimethylpiperidin-1-yl)-5-(4-(4-fluorophenethoxy)phenyl)-2-methyl-6-(2-methyl-1H-imidazol-1-yl)pyridin-3-yl)acetic acid], the EC50 under setting [1] was found to be 2 nM.

Under setting [1], `Cc1ncc(-c2cnc(NCC(C)C)c(F)c2)c(N2CCC(C)(C)CC2)c1[C@H](OC(C)(C)C)C(=O)O` [Example 415, (S)-2-(tert-Butoxy)-2-(4-(4,4-dimethylpiperidin-1-yl)-5′-fluoro-6′-(isobutylamino)-6-methyl-[3, 3′-bipyridin]-5-yl)acetic acid] returned an EC50 of 2 nM.

In turn, `Cc1ncc(-c2ccc(OCc3c(Cl)cccc3Cl)cn2)c(N2CCC(C)(C)CC2)c1[C@H](OC(C)(C)C)C(=O)O` [Example 355, (2S)-2-(tert-butoxy)-2-{5-[(2,6-dichlorophenyl)methoxy]-4′-(4,4-dimethylpiperidin-1-yl)-6′-methyl-[2,3′-bipyridine]-5′-yl}acetic acid] came in with a concentration giving a half-maximal response (EC50) under setting [1] of 1 nM.

Turning to `COc1cc(-c2cnc(C)c([C@H](OC(C)(C)C)C(=O)O)c2N2CCC(C)(C)CC2)cnc1OCC(C)C` [Example 410, (S)-2-(tert-Butoxy)-2-(4-(4,4-dimethylpiperidin-1-yl)-6′-isobutoxy-5′-methoxy-6-methyl-[3,3′-bipyridin]-5-yl)acetic acid], under setting [1], the EC50 was found to be 6 nM.

As for `Cc1nc(C(C)(C)O)c(-c2ccc(OCCc3ccc(F)cc3)c(F)c2)c(N2CCC(C)(C)CC2)c1[C@H](OC(C)(C)C)C(=O)O` (single isomer, unassigned) [Example 243], a half-maximal effect (EC50) was put at 7 nM.

As for `Cc1ccccc1-c1cnc(C)c([C@H](OC(C)(C)C)C(=O)O)c1N1CCC(C)(C)CC1` [Example 137, (2S)-2-(tert-Butoxy)-2-[4-(4,4-dimethylpiperidin-1-yl)-2-methyl-5-(2-methylphenyl)pyridin-3-yl]acetic acid], the EC50 under setting [1] was found to be 53 nM.

Under setting [1], `CCCOc1ncc(-c2cnc(C)c([C@H](OC(C)(C)C)C(=O)O)c2N2CCC(C)(C)CC2)cc1F` [Example 389, (2S)-2-(tert-butoxy)-2-[4-(4,4-dimethylpiperidin-1-yl)-5′-fluoro-6-methyl-6′-propoxy-[3,3′-bipyridine]-5-yl]acetic acid] returned a half-maximal effective concentration (EC50) of 3 nM.

In turn, `Cc1ncc(-c2cnc(OCCc3cccc(F)c3)c(F)c2)c(N2CCC(C)(C)CC2)c1[C@H](OC(C)(C)C)C(=O)O` [Example 119, (S)-2-(tert-Butoxy)-2-(4-(4,4-dimethylpiperidin-1-yl)-5′-fluoro-6′-(3-fluorophenethoxy)-6-methyl-[3, 3′-bipyridin]-5-yl)acetic acid] had an EC50 under setting [1] of 1 nM.

Turning to `COc1cc(F)c(F)c(-c2cnc(C)c([C@H](OC(C)(C)C)C(=O)O)c2N2CCC(C)(C)CC2)c1` [Example 157, (2S)-2-(tert-Butoxy)-2-[5-(2,3-difluoro-5-methoxyphenyl)-4-(4,4-dimethylpiperidin-1-yl)-2-methylpyridin-3-yl]acetic acid], the EC50 under setting [1] was found to be 22 nM.
